Test results published in PubChem BioAssay AID2060908 (Molecular Pharmacology Branch, DTP, NCI, 2025).
Where “and” joins values, the source holds several entries; their conditions need not be identical. Identical values can stand only once.

Test system: 186277-243-T-J2-PDC complex spheroids, viability
Assay: Anticancer human tumor 186277-243-T-J2-PDC patient-derived colon adenocarcinoma cell line growth inhibition [RAS]
Conditions: for IC50: curve of first compound; for viability, T/C: stronger effect = lower value
Method in brief: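 Agents were tested in combination matrices in half-log decrements from a top concentration at or near clinical Cmax (10 microM if undetermined). Targets were multi-cell spheroids of tumour lines plus HUVEC and MSC stromal cells.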

[1] = second compound 0.000949 µM, first compound 0.00316 µM
[2] = second compound 0.000949 µM, first compound 0.01 µM
[3] = second compound 0.000949 µM, first compound 0.0316 µM
[4] = second compound 0.000949 µM, first compound 0.1 µM
[5] = second compound 0.000949 µM, first compound 0.316 µM
[6] = second compound 0.000949 µM, first compound 1 µM
[7] = second compound 0.003 µM, first compound 0.00316 µM
[8] = second compound 0.003 µM, first compound 0.01 µM
[9] = second compound 0.003 µM, first compound 0.0316 µM
[10] = second compound 0.003 µM, first compound 0.1 µM
[11] = second compound 0.003 µM, first compound 0.316 µM
[12] = second compound 0.003 µM, first compound 1 µM
[13] = second compound 0.00949 µM, first compound 0.00316 µM
[14] = second compound 0.00949 µM, first compound 0.01 µM
[15] = second compound 0.00949 µM, first compound 0.0316 µM
[16] = second compound 0.00949 µM, first compound 0.1 µM
[17] = second compound 0.00949 µM, first compound 0.316 µM
[18] = second compound 0.00949 µM, first compound 1 µM
[19] = second compound 0.03 µM, first compound 0.00316 µM
[20] = second compound 0.03 µM, first compound 0.01 µM
[21] = second compound 0.03 µM, first compound 0.0316 µM
[22] = second compound 0.03 µM, first compound 0.1 µM
[23] = second compound 0.03 µM, first compound 0.316 µM
[24] = second compound 0.03 µM, first compound 1 µM
[25] = second compound 0.0949 µM, first compound 0.00316 µM
[26] = second compound 0.0949 µM, first compound 0.01 µM
[27] = second compound 0.0949 µM, first compound 0.0316 µM
[28] = second compound 0.0949 µM, first compound 0.1 µM
[29] = second compound 0.0949 µM, first compound 0.316 µM
[30] = second compound 0.0949 µM, first compound 1 µM
[31] = second compound 0.3 µM, first compound 0.00316 µM
[32] = second compound 0.3 µM, first compound 0.01 µM
[33] = second compound 0.3 µM, first compound 0.0316 µM
[34] = second compound 0.3 µM, first compound 0.1 µM
[35] = second compound 0.3 µM, first compound 0.316 µM
[36] = second compound 0.3 µM, first compound 1 µM
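Note: spheroids exposed to compounds for 7 days before viability read.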

With `O=C(c1ccc(F)c(F)c1Nc1ccc(I)cc1F)N1CC(O)([C@@H]2CCCCN2)C1` + CCn1c(-c2cc(N3CCN(C)CC3)cnc2C(C)OC)c2c3cc(ccc31)-c1csc(n1)CC(NC(=O)C1CC1C)C(=O)N1CCCC(N1)C(=O)OCC(C)(C)C2 the IC50 (second compound 0.000949 µM) was 64 nM, the IC50 (second compound 0.003 µM) was 31.5 nM and the IC50 (second compound 0.00949 µM) was under 3.16 nM. The IC50 (second compound 0.03 µM) was under 3.16 nM, the IC50 (second compound 0.0949 µM) was under 3.16 nM and the IC50 (second compound 0.3 µM) was under 3.16 nM. It also gave a viability, T/C [1] of 92.7%, a viability, T/C [2] of 89.7% and a viability, T/C [3] of 83%. For the same molecule, the viability, T/C [4] was 29.1%, the viability, T/C [5] was 8.1% and the viability, T/C [6] was 4.25%. For the same molecule, the viability, T/C [7] was 114%, the viability, T/C [8] was 97.8% and the viability, T/C [9] was 47.8%. It also gave a viability, T/C [10] of 18.8%, a viability, T/C [11] of 6.27% and a viability, T/C [12] of 3.79%. It also gave a viability, T/C [13] of 43.6%, a viability, T/C [14] of 30.6% and a viability, T/C [15] of 13.6%. For the same molecule, the viability, T/C [16] was 7.57%, the viability, T/C [17] was 4.59% and the viability, T/C [18] was 3.19%. For the same molecule, the viability, T/C [19] was 14.9%, the viability, T/C [20] was 9.48% and the viability, T/C [21] was 6.73%. It also gave a viability, T/C [22] of 3.92%, a viability, T/C [23] of 3.2% and a viability, T/C [24] of 2.56%. For the same molecule, the viability, T/C [25] was 6.07%, the viability, T/C [26] was 5.43% and the viability, T/C [27] was 4.04%. The viability, T/C [28] was 2.64%, the viability, T/C [29] was 2.57% and the viability, T/C [30] was 2.4%. It also gave a viability, T/C [31] of 5%, a viability, T/C [32] of 4.75% and a viability, T/C [33] of 2.99%. The viability, T/C [34] was 2.73%, the viability, T/C [35] was 2.91% and the viability, T/C [36] was 2.4%.

For `CC(Nc1ccc2c(c1)OCCn1cc(N3C(=O)OCC3C(F)F)nc1-2)C(N)=O` (centres undefined), the viability, T/C (compound 0.0316 µM) was 102% (2×) and 76.1% and 98.5%, the viability, T/C (compound 0.1 µM) was 91.8% [middle of 4 runs] and the viability, T/C (compound 0.316 µM) was 69.5% [middle of 4 runs]. For the same molecule, the viability, T/C (compound 1 µM) was 51.2% [middle of 4 runs] and the viability, T/C (compound 10 µM) was 34.3% [middle of 4 runs].

For `C=CC(=O)Nc1cc(Nc2nccc(-c3cn(C)c4ccccc34)n2)c(OC)cc1N(C)CCN(C)C` + CCn1c(-c2cc(N3CCN(C)CC3)cnc2C(C)OC)c2c3cc(ccc31)-c1csc(n1)CC(NC(=O)C1CC1C)C(=O)N1CCCC(N1)C(=O)OCC(C)(C)C2, the IC50 (second compound 0.000949 µM) was over 1000 nM, the IC50 (second compound 0.003 µM) was 348 nM and the IC50 (second compound 0.00949 µM) was 10.9 nM. It also gave an IC50 (second compound 0.03 µM) of under 3.16 nM, an IC50 (second compound 0.0949 µM) of under 3.16 nM and an IC50 (second compound 0.3 µM) of under 3.16 nM. It also gave a viability, T/C [1] of 103%, a viability, T/C [2] of 112% and a viability, T/C [3] of 107%. It also gave a viability, T/C [4] of 115%, a viability, T/C [5] of 85.2% and a viability, T/C [6] of 52.6%. The viability, T/C [7] was 106%, the viability, T/C [8] was 104% and the viability, T/C [9] was 91.8%. The viability, T/C [10] was 81.6%, the viability, T/C [11] was 52.3% and the viability, T/C [12] was 15.8%. It also gave a viability, T/C [13] of 58.3%, a viability, T/C [14] of 48.7% and a viability, T/C [15] of 40.6%. The viability, T/C [16] was 28.8%, the viability, T/C [17] was 10.8% and the viability, T/C [18] was 5.19%. The viability, T/C [19] was 18.4%, the viability, T/C [20] was 15.4% and the viability, T/C [21] was 12.1%. It also gave a viability, T/C [22] of 9.43%, a viability, T/C [23] of 5.63% and a viability, T/C [24] of 4.11%. The viability, T/C [25] was 7.42%, the viability, T/C [26] was 6.89% and the viability, T/C [27] was 5.88%. For the same molecule, the viability, T/C [28] was 4.8%, the viability, T/C [29] was 4.22% and the viability, T/C [30] was 2.72%. It also gave a viability, T/C [31] of 6%, a viability, T/C [32] of 6% and a viability, T/C [33] of 4.87%. For the same molecule, the viability, T/C [34] was 4.47%, the viability, T/C [35] was 4.17% and the viability, T/C [36] was 2.68%.
